Reference: PubChem BioAssay (NCI)
Values joined by “and” are separate entries in the source; they are usually repeats but may differ in a detail not shown here. Equal entries are not always repeated.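 All cell lines were grown in 96-well plates and treated with compound for 48 hours. GI50 marks 50% less growth. TGI: total growth inhibition.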

How the values were obtained:
Assay in all cases: inhibition of tumour cell growth, NCI panel, 48 h
[1] = tested on: SNB-19 CNS
[2] = tested on: A549 NSCLC
[3] = tested on: K-562 leukemia
[4] = tested on: HT29 colon
[5] = tested on: LOX IMVI melanoma
[6] = tested on: SF-539 CNS
[7] = tested on: SF-268 CNS
[8] = tested on: HS 578T breast
[9] = tested on: MCF7 breast
[10] = tested on: OVCAR-5 ovarian
[11] = tested on: NCI-H23 lung
[12] = tested on: HCT-15 colon
[13] = tested on: MALME-3M melanoma
[14] = tested on: OVCAR-8 ovarian
[15] = tested on: SK-MEL-2 melanoma
[16] = tested on: A498 renal
[17] = tested on: SK-MEL-28 melanoma
[18] = tested on: NCI-H460 lung
[19] = tested on: SF-295 CNS
[20] = tested on: HOP-62 NSCLC
[21] = tested on: CCRF-CEM leukemia
[22] = tested on: RXF 393 renal
[23] = tested on: UACC-257 melanoma
[24] = tested on: UO-31 renal
[25] = tested on: TK-10 renal
[26] = tested on: KM12 colon
[27] = tested on: M14 melanoma
[28] = tested on: SK-MEL-5 melanoma
[29] = tested on: EKVX NSCLC
[30] = tested on: DU-145 prostate
[31] = tested on: COLO 205 colon
[32] = tested on: NCI-H226 lung
[33] = tested on: SW-620 colon
[34] = tested on: MOLT-4 leukemia
[35] = tested on: MDA-MB-435
[36] = tested on: CAKI-1 renal
[37] = tested on: HOP-92 NSCLC
[38] = tested on: PC-3 prostate
[39] = tested on: HL-60(TB) leukemia
[40] = tested on: SN12C renal
[41] = tested on: HCC-2998 colon
[42] = tested on: NCI-H522 lung
[43] = tested on: U251 CNS
[44] = tested on: SNB-75 CNS
[45] = tested on: SR leukemia
[46] = tested on: NCI/ADR-RES ovarian
[47] = tested on: HCT-116 colon
[48] = tested on: SK-OV-3 ovarian
[49] = tested on: IGROV1 ovarian
[50] = tested on: UACC-62 melanoma
[51] = tested on: T-47D breast
[52] = tested on: ACHN renal
[53] = tested on: RPMI-8226 leukemia
[54] = tested on: 786-0 renal
[55] = tested on: MDA-MB-231 breast
[56] = tested on: BT-549 breast
[57] = tested on: OVCAR-3 ovarian
[58] = tested on: OVCAR-4 ovarian

## Nc1nc(Nc2ccccc2SSc2ccccc2Nc2nc(N)nc(C(Cl)(Cl)Cl)n2)nc(C(Cl)(Cl)Cl)n1
[1]
  GI50: 4.41 µM
  TGI: 17.8 µM
[2]
  GI50: 2.95 µM
  TGI: 10.8 µM
[3]
  GI50: 3.93 µM
  TGI: 17.7 µM
[4]
  GI50: 22.3 µM
  TGI: 79.7 µM
[5]
  GI50: 1.68 µM
  TGI: 3.13 µM
[6]
  GI50: 11.2 µM
  TGI: 24.7 µM
[7]
  GI50: 3.1 µM
  TGI: 13.8 µM
[8]
  GI50: 5.44 µM
  TGI: > 100 µM
[9]
  GI50: 6.46 µM
  TGI: 33 µM
[10]
  GI50: 4.75 µM
  TGI: 18.7 µM
[11]
  GI50: 3.66 µM
  TGI: 13.9 µM
[12]
  GI50: 3.89 µM
  TGI: 15 µM
[13]
  GI50: 5.9 µM
  TGI: 18.6 µM
[14]
  GI50: 5.38 µM
  TGI: 24.7 µM
[15]
  GI50: 13.2 µM
  TGI: 33.9 µM
[16]
  GI50: 24.3 µM
  TGI: 88.8 µM
[17]
  GI50: 10.9 µM
  TGI: 23.6 µM
[18]
  GI50: 4 µM
  TGI: 14.7 µM
[19]
  GI50: 1.99 µM
  TGI: 4.75 µM
[20]
  GI50: 2.07 µM
  TGI: 6.33 µM
[21]
  GI50: 3.23 µM
  TGI: 14 µM
[22]
  GI50: 3.47 µM
  TGI: 10.3 µM
[23]
  GI50: 11.7 µM
  TGI: 92.9 µM
[24]
  GI50: 1.56 µM
  TGI: 3 µM
[25]
  GI50: 4.85 µM
  TGI: 17.2 µM
[26]
  GI50: 4.05 µM
  TGI: 28.9 µM
[27]
  GI50: 9.13 µM
  TGI: 22.9 µM
[28]
  GI50: 5.97 µM
  TGI: 32.2 µM
[29]
  GI50: 5.8 µM
  TGI: 20.4 µM
[30]
  GI50: 9.57 µM
  TGI: 24.4 µM
[31]
  GI50: 17.6 µM
  TGI: 34.9 µM
[32]
  GI50: 3.49 µM
  TGI: 15.9 µM
[33]
  GI50: 2.67 µM
  TGI: 7.99 µM
[34]
  GI50: 3.22 µM
  TGI: 18.1 µM
[35]
  GI50: 6.39 µM
  TGI: 24.9 µM
[36]
  GI50: 3.01 µM
  TGI: 10.5 µM
[37]
  GI50: 4.33 µM
  TGI: 21.4 µM
[38]
  GI50: 3.56 µM
  TGI: 18.6 µM
[39]
  GI50: 2.55 µM
  TGI: 12.1 µM
[40]
  GI50: 2.46 µM
  TGI: 7.26 µM
[41]
  GI50: 30.1 µM
  TGI: > 100 µM
[42]
  GI50: 2.6 µM
  TGI: 10.3 µM
[43]
  GI50: 2.29 µM
  TGI: 5.85 µM
[44]
  GI50: 2.94 µM
  TGI: 22.3 µM
[45]
  GI50: 1.63 µM
  TGI: 3.76 µM
[46]
  GI50: 3.68 µM
  TGI: 16.6 µM
[47]
  GI50: 4.82 µM
  TGI: 16.9 µM
[48]
  GI50: 26.4 µM
  TGI: 91.3 µM
[49]
  GI50: 3.49 µM
  TGI: 15.7 µM
[50]
  GI50: 2.94 µM
  TGI: 11.4 µM
[51]
  GI50: 2.79 µM
  TGI: 39.2 µM
[52]
  GI50: 1.7 µM
  TGI: 3.2 µM
[53]
  GI50: 2.94 µM
  TGI: 10.2 µM
[54]
  GI50: 7 µM
  TGI: 19.9 µM
[55]
  GI50: 3.13 µM
  TGI: 10.7 µM
[56]
  GI50: 3.34 µM
  TGI: 35.7 µM
[57]
  GI50: 10.4 µM
  TGI: 33.8 µM
[58]
  GI50: 6.86 µM
  TGI: 45.1 µM

## O=C1OC(C(O)CO)C(O)=C1O (configuration not stated)
[1]
  GI50: > 10000 µM
  TGI: > 10000 µM
[2]
  GI50: 2510 µM and > 4270 µM
  TGI: 6010 µM and > 6460 µM
[3]
  GI50: 378 µM and 337 µM
  TGI: 1460 µM and 1210 µM
[4]
  GI50: 2000 µM and 1870 µM
  TGI: 4070 µM and 3750 µM
[5]
  GI50: 340 µM and 426 µM
  TGI: 1000 µM and 1460 µM
[6]
  GI50: 1900 µM and 1390 µM
  TGI: 3360 µM and 1830 µM
[7]
  GI50: 2120 µM and 1960 µM
  TGI: 4020 µM
[8]
  GI50: 2990 µM and > 10000 µM
  TGI: 7960 µM and > 10000 µM
[9]
  GI50: 233 µM and 489 µM
  TGI: 502 µM and 1100 µM
[10]
  GI50: 1790 µM and 1730 µM
  TGI: 3400 µM and 3310 µM
[11]
  GI50: 2920 µM and > 4420 µM
  TGI: > 10000 µM
[12]
  GI50: 1860 µM
  TGI: 3450 µM and 3870 µM
[13]
  GI50: 1540 µM and 1760 µM
  TGI: 2990 µM and 3550 µM
[14]
  GI50: 1550 µM and 1510 µM
  TGI: 3050 µM and 3190 µM
[15]
  GI50: 2190 µM
  TGI: 4940 µM and > 3780 µM
[16]
  GI50: 4650 µM and > 10000 µM
  TGI: > 10000 µM
[17]
  GI50: 2530 µM and > 10000 µM
  TGI: 6230 µM and > 10000 µM
[18]
  GI50: > 10000 µM
  TGI: > 10000 µM
[19]
  GI50: 6830 µM and > 4590 µM
  TGI: > 10000 µM
[20]
  GI50: 2420 µM and 2940 µM
  TGI: 4800 µM and 6210 µM
[21]
  GI50: 239 µM and 275 µM
  TGI: 576 µM and 792 µM
[22]
  GI50: 1650 µM and 1750 µM
  TGI: 3080 µM and 3400 µM
[23]
  GI50: 1870 µM and > 3610 µM
  TGI: 3730 µM and > 5150 µM
[24]
  GI50: 1760 µM and 1380 µM
  TGI: 3170 µM and 2720 µM
[25]
  GI50: 9040 µM and > 4840 µM
  TGI: > 10000 µM
[26]
  GI50: 1790 µM and > 3990 µM
  TGI: 3270 µM and > 5430 µM
[27]
  GI50: 1890 µM and 2290 µM
  TGI: 3570 µM and 4760 µM
[28]
  GI50: 1560 µM and > 4190 µM
  TGI: 2910 µM and > 5600 µM
[29]
  GI50: 2420 µM
  TGI: 4390 µM
[30]
  GI50: 1610 µM and 1690 µM
  TGI: 3040 µM and 3110 µM
[31]
  GI50: 2030 µM and 1830 µM
  TGI: 3750 µM and 3420 µM
[32]
  GI50: 2150 µM and 4450 µM
  TGI: 4870 µM and > 6830 µM
[33]
  GI50: 191 µM and 189 µM
  TGI: 408 µM and 412 µM
[34]
  GI50: 2130 µM and 1550 µM
  TGI: 5040 µM and > 4890 µM
[35]
  GI50: 203 µM and 208 µM
  TGI: 372 µM and 374 µM
[36]
  GI50: 1880 µM and 2150 µM
  TGI: 3350 µM and 4620 µM
[37]
  GI50: 2060 µM and > 10000 µM
  TGI: 4480 µM and > 10000 µM
[38]
  GI50: 2190 µM and > 4180 µM
  TGI: 5670 µM and > 5820 µM
[39]
  GI50: 5590 µM and 5090 µM
  TGI: > 10000 µM
[40]
  GI50: 1460 µM and 1540 µM
  TGI: 2810 µM and 3070 µM
[41]
  GI50: > 10000 µM
  TGI: > 10000 µM
[42]
  GI50: 1590 µM and 293 µM
  TGI: 3380 µM and > 3070 µM
[43]
  GI50: 1910 µM and 1840 µM
  TGI: 3400 µM and 3550 µM
[44]
  GI50: 2460 µM and > 4760 µM
  TGI: 4050 µM and > 6140 µM
[45]
  GI50: 349 µM and 292 µM
  TGI: 877 µM and 924 µM
[46]
  GI50: 2450 µM
  TGI: 5930 µM and > 6010 µM
[47]
  GI50: 250 µM and 641 µM
  TGI: 534 µM and 2110 µM
[48]
  GI50: 6030 µM and > 4760 µM
  TGI: > 10000 µM
[49]
  GI50: 2040 µM and > 2490 µM
  TGI: 4140 µM and > 4350 µM
[50]
  GI50: 1670 µM and 2050 µM
  TGI: 3050 µM and > 5130 µM
[51]
  GI50: 2080 µM and 2100 µM
  TGI: 4800 µM and 4380 µM
[52]
  GI50: 1540 µM and 1610 µM
  TGI: 2940 µM and 3060 µM
[53]
  GI50: 1910 µM and 2400 µM
  TGI: 4500 µM and 6610 µM
[54]
  GI50: 1790 µM and > 4300 µM
  TGI: 3290 µM and > 5710 µM
[55]
  GI50: 1460 µM and 1440 µM
  TGI: 2820 µM and 2960 µM
[56]
  GI50: 2190 µM and 2510 µM
  TGI: 4330 µM and > 5710 µM
[57]
  GI50: 1560 µM
  TGI: 2900 µM
[58]
  GI50: 1840 µM and 1970 µM
  TGI: 3520 µM and 3940 µM
